Laboratory results taken from US6727076B2 (priority 1995, dated 2004).
“Also recorded” adds a separate entry of the source. Peptide text beside a SMILES is read from it.

Each compound was assayed on E. coli MG1655.
Format: cell-based

Compound	suitability as sulfur source (growth, purple color)	suitability as phosphorus source (growth, purple color)
CCCCCCCCCCCCS(=O)(=O)O [1-dodecane-sulfonic acid]	not suitable	
N[C@@H](Cc1ccc(OP(=O)(O)O)cc1)C(=O)O [O-phospho-L-tyrosine]		positive
C=C(OP(=O)(O)O)C(=O)O [phosphoenol pyruvate]		positive
O=C(O)[C@H](O)[C@@H](O)[C@H](O)[C@H](O)COP(=O)(O)O [6-phosphogluconic acid]		positive
N[C@@H](CSC[C@H](N)C(=O)O)C(=O)O [lanthionine]	positive	

What follows are compounds tested on E. coli 287 (ATCC #11775).
Format: cell-based

Compound	carbon source utilization result
C=C(CC(=O)O)C(=O)O [itaconic acid]	negative
CC(=O)O [Acetic acid]	positive
O=C(O)/C=C(/CC(=O)O)C(=O)O [cis-aconitic acid]	positive/negative
CC(O)C(=O)O (racemic) [D,L-lactic acid]	positive
CC(=O)N[C@H]1C(O)O[C@H](CO)[C@H](O)[C@@H]1O (stereo partly drawn) [N-acetyl-D-galactosamine]	positive
NCCCCN [putrescine]	positive/negative
OC[C@H]1O[C@@H](O[C@H]2[C@H](O)[C@@H](O)[C@@H](O)O[C@@H]2CO)[C@H](O)[C@@H](O)[C@H]1O [α-D-lactose]	positive
O=C[C@H](O)[C@@H](O)[C@H](O)[C@H](O)C(=O)O [D-glucuronic acid]	positive
C[C@H](O)[C@H](O)[C@@H](O)[C@@H](O)C=O [L-rhamnose]	positive
OC[C@@H](O)[C@H](O)[C@@H](O)CO [xylitol]	negative
C[N+](C)(C)CC(O)CC(=O)[O-] (racemic) [D,L-carnitine]	negative
O=C(O)CC(=O)O [malonic acid]	negative
CC(C)C[C@H](N)C(=O)O [L-leucine]	negative
Cc1cn([C@H]2C[C@H](O)[C@@H](CO)O2)c(=O)[nH]c1=O [Thymidine]	positive
O=C(O)/C=C/c1c[nH]cn1 [urocanic acid]	negative; also recorded: equivocal; also recorded: positive
OC[C@H]1O[C@@H]2O[C@H]3[C@H](O)[C@@H](O)[C@@H](O[C@H]4[C@H](O)[C@@H](O)[C@@H](O[C@H]5[C@H](O)[C@@H](O)[C@@H](O[C@H]6[C@H](O)[C@@H](O)[C@@H](O[C@H]7[C@H](O)[C@@H](O)[C@@H](O[C@H]1[C@H](O)[C@H]2O)O[C@@H]7CO)O[C@@H]6CO)O[C@@H]5CO)O[C@@H]4CO)O[C@@H]3CO [α-cyclodextrin]	negative
C[C@H](N)C(N)=O [alaninamide]	positive
CC(O)C(C)O (stereo not shown) [2,3-butanediol]	positive/negative
O=C(O)[C@H](O)[C@@H](O)[C@H](O)[C@H](O)CO [D-gluconic acid]	positive
NCC(=O)N[C@@H](CC(=O)O)C(=O)O [Glycyl-L-aspartic acid] (H-Gly-Asp-OH)	positive
NCCc1ccccc1 [Phenylethyl amine]	positive/negative
OC[C@@H](O)[C@@H](O)[C@@H](O)CO [Adonitol]	negative
CCCC(=O)C(=O)O [α-ketovaleric acid]	negative
O=C(O)CCCO [γ-hydroxybutyric acid]	negative

Tested on: E. coli MG1655
Format: cell-based
Remark: another data set of the same source

Compound	suitability as nitrogen source (growth, purple color)
NCC(=O)O [glycine]	positive
C[C@H](N)C(=O)N[C@H](C(=O)O)[C@@H](C)O [ala-thr] (H-Ala-Thr-OH)	positive
O=c1[nH]c(=O)c2[nH]cnc2[nH]1 [xanthine]	not suitable
O=[N+]([O-])[O-].[K+] [potassium nitrate]	not suitable
NC(N)=O [urea]	not suitable
O=NO [sodium nitrite]	not suitable
O=c1[nH]c(=O)c2[nH]c(=O)[nH]c2[nH]1 [uric acid]	not suitable
Nc1ncnc2c1ncn2[C@@H]1O[C@H](CO)[C@@H](O)[C@H]1O [Adenosine]	not suitable
NCCCCCC(=O)O [ε-amino-n-caproic acid]	not suitable
NCC(=O)N[C@@H](CCC(N)=O)C(=O)O [gly-gln] (H-Gly-Gln-OH)	positive
NCCc1ccc(O)cc1 [Tyramine]	not suitable
C[C@H](NC(=O)CN)C(=O)O [gly-ala] (H-Gly-Ala-OH)	positive
CCCCCCC(N)C(=O)O (racemic) [DL-α-amino-caprylic acid]	not suitable
C[C@H](N)C(=O)N[C@@H](Cc1cnc[nH]1)C(=O)O [ala-his] (H-Ala-His-OH)	not suitable
CC(=O)N[C@H]1C(O)O[C@H](CO)[C@H](O)[C@@H]1O (stereo partly drawn) [N-acetyl-D-galactosamine]	not suitable
NC(=O)NCCC[C@H](N)C(=O)O [L-citrulline]	not suitable
NCCCCN [putrescine]	not suitable
NCC(=O)N[C@@H](CC(N)=O)C(=O)O [gly-asn] (H-Gly-Asn-OH)	positive
CC(C)[C@@H](N)C(=O)O [D-valine]	not suitable
CCCC(N)C(=O)O (stereo not shown) [2-amino-valeric acid]	not suitable

Compound	suitability as nitrogen source (growth, purple color)
N[C@@H](Cc1ccc(O)cc1)C(=O)O [L-tyrosine]	not suitable
CC(=O)NCC(=O)O [N-acetyl-glycine]	not suitable
Cc1c[nH]c(=O)[nH]c1=O [thymine]	not suitable
CC(C)C[C@H](N)C(=O)O [L-leucine]	not suitable
Cc1cn([C@H]2C[C@H](O)[C@@H](CO)O2)c(=O)[nH]c1=O [Thymidine]	not suitable
NCCCC[C@@H](N)C(=O)O [D-lysine]	not suitable
N[C@H]1C(O)O[C@H](CO)[C@H](O)[C@@H]1O (stereo partly drawn) [D(+)-galactosamine]	weak positive
O=c1[nH]c(=O)c2ncn([C@@H]3O[C@H](CO)[C@@H](O)[C@H]3O)c2[nH]1 [xanthosine]	not suitable
O=C(O)/C=C/c1c[nH]cn1 [urocanic acid]	not suitable
Nc1ncnc2nc[nH]c12 [adenine]	not suitable
N=C(N)NCCC[C@H](N)C(=O)O [L-arginine]	positive
CC[C@H](C)[C@H](N)C(=O)O [L-isoleucine]	not suitable
CCC(N)C(=O)O (racemic) [DL-α-amino-n-butyric acid]	not suitable
NCCCC[C@H](N)C(=O)O [L-lysine]	not suitable
NC(=O)[C@@H](O)[C@@H](O)[C@H](O)[C@@H](O)C=O [Glucuronamide]	not suitable
CCN [ethylamine]	not suitable
O=C1NC(=O)C(=O)C(=O)N1 [alloxan]	not suitable
CCCCN [n-butylamine]	not suitable
Cl.N [NH4Cl, ammonium chloride]	positive
CC(O)C(N)=O (stereo not shown) [lactamide]	not suitable

Compound	suitability as nitrogen source (growth, purple color)
N[C@@H](CCO)C(=O)O [L-homoserine]	not suitable
CC(N)=O [acetamide]	not suitable
O=C(O)CNC(=O)c1ccccc1 [hippuric acid]	not suitable
NC(=O)C[C@@H](N)C(=O)O [D-asparagine]	not suitable
CCCCCN [n-amylamine]	not suitable
N[C@H]1C(O)O[C@H](CO)[C@@H](O)[C@@H]1O (stereo partly drawn) [D(+)-glucosamine]	positive
N[C@@H]1C(O)O[C@H](CO)[C@@H](O)[C@@H]1O (stereo partly drawn) [D-mannosamine]	weak positive
CSCC[C@H](N)C(=O)N[C@@H](C)C(=O)O [met-ala] (H-Met-Ala-OH)	not suitable
C[C@@H](N)c1ccccc1 [(R)-(+)-α-phenylethylamine]	not suitable
CC(=O)N[C@@H]1C(O)O[C@H](CO)[C@@H](O)[C@@H]1O (stereo partly drawn) [N-acetyl-D-mannosamine]	not suitable
NCCN [ethylenediamine]	not suitable
NCCc1ccccc1 [Phenylethyl amine]	not suitable
CSCC[C@H](NC(=O)CN)C(=O)O [gly-met]	positive
N=C(N)NCCCCN [agmatine]	not suitable
CC(C)[C@H](N)C(=O)O [L-valine]	not suitable
C[C@H](N)C(=O)N[C@@H](CCC(N)=O)C(=O)O [ala-gln] (H-Ala-Gln-OH)	positive
N[C@H](CCC(=O)O)C(=O)O [D-glutamic acid]	not suitable
NC=O [formamide]	not suitable
NCCc1c[nH]cn1 [histamine]	not suitable
